Source: patent publication US9296723B2, “NAMPT inhibitors” (AbbVie Inc., priority 2012, dated 2016)

How the values were obtained:
NAMPT = NAMPT (Homo sapiens, UniProt P43490); test: Time-Resolved Fluorescence Resonance Energy Transfer (TR-FRET) Binding Assay of NAMPT; conditions: 6.8 nM NAMPT, 200 nM probe, equilibrated 3 hours, no substrates
Protocol: Determination of the utility of compounds having Formula (I) as binders to and inhibitors of NAMPT was performed using Time-Resolved Fluorescence Resonance Energy Transfer (TR-FRET) binding assays.
Time-Resolved Fluorescence Resonance Energy Transfer (TR-FRET) Binding Assay of NAMPT
Six L were transferred to 384-well low-volume plates ([…] #3673). To this, 12 L of a 1.5× solution containing enzyme, probe and antibody were added. […] Reactions were equilibrated at room temperature for 3 hours prior to reading on an Envision multi-label plate reader (Perkin Elmer; Ex=337 nm, Em=520 and 495 nm). Time-resolved FRET ratios (Em520/Em495) were normalized to controls, plotted as a function of compound concentration and fit with the four-parameter logistic equation to determine IC50s.

PC3 cells = test: NAMPT Cell Proliferation Assay (Cell Titer Glo); type: cell-based; conditions: Homo sapiens, PC-3, 120 h, incubated 5 days, cell viability
Protocol: NAMPT Cell Proliferation Assay
PC3 cells were seeded in 96-well black plates (Corning #3904) at 500 cells/well in 90 µl of RPMI media containing 10% heat-inactivated FBS and incubated overnight at 37° C. and 5% CO2 to allow cells to attach to wells. The following day, test compounds were serially diluted in neat DMSO to 1000× final concentrations prior to dilution with RPMI media to 10× and 1% DMSO. Ten L of the 10× compounds were then transferred to wells containing cells to produce a dose response of 10-fold dilutions from […]. Cells were incubated for 5 days at 37° C. and 5% CO2, then cell viability was measured using Cell Titer Glo reagent (Promega #G7571). Percent inhibition values were calculated and fitted to a sigmoidal dose response curves using Assay Explorer software to determine IC50s.

NAMPT, sequence (P43490 whole entry): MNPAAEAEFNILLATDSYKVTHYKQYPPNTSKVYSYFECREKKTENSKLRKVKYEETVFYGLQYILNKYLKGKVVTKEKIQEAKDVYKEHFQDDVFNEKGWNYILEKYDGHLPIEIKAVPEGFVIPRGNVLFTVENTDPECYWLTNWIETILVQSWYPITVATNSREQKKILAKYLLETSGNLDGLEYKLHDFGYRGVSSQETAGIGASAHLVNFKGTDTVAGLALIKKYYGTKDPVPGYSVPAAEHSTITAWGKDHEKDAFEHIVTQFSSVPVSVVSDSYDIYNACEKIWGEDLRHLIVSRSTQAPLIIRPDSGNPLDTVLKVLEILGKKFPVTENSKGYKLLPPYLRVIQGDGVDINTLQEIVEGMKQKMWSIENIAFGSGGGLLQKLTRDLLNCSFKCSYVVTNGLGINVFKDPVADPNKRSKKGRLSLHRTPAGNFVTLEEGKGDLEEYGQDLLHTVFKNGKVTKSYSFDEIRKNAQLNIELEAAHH

SMILES	IC50 (NAMPT) [nM]	IC50 (PC3 cells) [nM]
O=C(CC1CCOCC1)N1CC[C@@H](Oc2ccc(NC(=O)N3CC(c4cccnc4)C3)cc2)C1 [Example 76, 3-(pyridin-3-yl)-N-(4-{[(3R)-1-(tetrahydro-2H-pyran-4-ylacetyl)pyrrolidin-3-yl]oxy}phenyl)azetidine-1-carboxamide]	83.6	22.4
O=C(Nc1ccc(O[C@@H]2CCN(C(=O)[C@H]3CCCO3)C2)cc1)N1CC(c2cccnc2)C1 [Example 79, 3-(pyridin-3-yl)-N-[4-({(3R)-1-[(2R)-tetrahydrofuran-2-ylcarbonyl]pyrrolidin-3-yl}oxy)phenyl]azetidine-1-carboxamide]	92.9	41.4
O=C(Nc1ccc(O[C@@H]2CCN(C(=O)C3CCOC3)C2)cc1)N1CC(c2cccnc2)C1 (stereo partly drawn) [Example 80, 3-(pyridin-3-yl)-N-(4-{[(3R)-1-(tetrahydrofuran-3-ylcarbonyl)pyrrolidin-3-yl]oxy}phenyl)azetidine-1-carboxamide]	122	63.2
O=C(CC1CC1)N1CC[C@@H](Oc2ccc(NC(=O)N3CC(c4cccnc4)C3)cc2)C1 [Example 81, N-(4-{[(3R)-1-(cyclopropylacetyl)pyrrolidin-3-yl]oxy}phenyl)-3-(pyridin-3-yl)azetidine-1-carboxamide]	30.9	17.8
O=C(Nc1ccc(O[C@@H]2CCN(C(=O)c3ccccc3)C2)cc1)N1CC(c2cccnc2)C1 [Example 83, N-(4-{[(3R)-1-benzoylpyrrolidin-3-yl]oxy}phenyl)-3-(pyridin-3-yl)azetidine-1-carboxamide]	7.22	6.85
CC(C)C(=O)N1CC[C@H](Oc2ccc(NC(=O)N3CC(c4cccnc4)C3)cc2)C1 [Example 89, N-(4-{[(3S)-1-(2-methylpropanoyl)pyrrolidin-3-yl]oxy}phenyl)-3-(pyridin-3-yl)azetidine-1-carboxamide]	227	180

The remaining compounds from weak to strong by IC50 (NAMPT), led by results:

IC50 (NAMPT) [nM]	IC50 (PC3 cells) [nM]	SMILES
387	608	O=C(Nc1ccc(O[C@H]2CCN(C(=O)C3CCOC3)C2)cc1)N1CC(c2cccnc2)C1 (stereo partly drawn) [Example 92, 3-(pyridin-3-yl)-N-(4-{[(3S)-1-(tetrahydrofuran-3-ylcarbonyl)pyrrolidin-3-yl]oxy}phenyl)azetidine-1-carboxamide]
320	111	O=C(Nc1ccc(O[C@H]2CCN(C(=O)[C@H]3CCCO3)C2)cc1)N1CC(c2cccnc2)C1 [Example 91, 3-(pyridin-3-yl)-N-[4-({(3S)-1-[(2R)-tetrahydrofuran-2-ylcarbonyl]pyrrolidin-3-yl}oxy)phenyl]azetidine-1-carboxamide]
61.9	17.3	CC(C)C(=O)N1CC[C@@H](Oc2ccc(NC(=O)N3CC(c4cccnc4)C3)cc2)C1 [Example 77, N-(4-{[(3R)-1-(2-methylpropanoyl)pyrrolidin-3-yl]oxy}phenyl)-3-(pyridin-3-yl)azetidine-1-carboxamide]
59.4	22	O=C(CC(F)(F)F)N1CC[C@@H](Oc2ccc(NC(=O)N3CC(c4cccnc4)C3)cc2)C1 [Example 84, 3-(pyridin-3-yl)-N-(4-{[(3R)-1-(3,3,3-trifluoropropanoyl)pyrrolidin-3-yl]oxy}phenyl)azetidine-1-carboxamide]
19.8	6.04	CCCC(=O)N1CC[C@@H](Oc2ccc(NC(=O)N3CC(c4cccnc4)C3)cc2)C1 [Example 87, N-(4-{[(3R)-1-butanoylpyrrolidin-3-yl]oxy}phenyl)-3-(pyridin-3-yl)azetidine-1-carboxamide]
9.73	7.24	CC(C)(O)C(=O)N1CC[C@@H](Oc2ccc(NC(=O)N3CC(c4cccnc4)C3)cc2)C1 [Example 82, N-(4-{[(3R)-1-(2-hydroxy-2-methylpropanoyl)pyrrolidin-3-yl]oxy}phenyl)-3-(pyridin-3-yl)azetidine-1-carboxamide]
